# Legend:
# [1] = in vitro; settings: human, hepatocytes
# [2] = in vitro; settings: Sprague-Dawley, rat, hepatocytes
# [3] = biological target: 5-hydroxytryptamine receptor 6 (Homo sapiens, UniProt P50406); experiment: Displacement of [3H]-methyllysergic acid diethylamide from human 5-HT6 receptor expressed in CHO cells after 30 mins by liquid scintillation counting; type: cell-based
# [4] = biological target: Cytochrome P450 1A2 (Homo sapiens, UniProt P05177); experiment: Inhibition of CYP 1A2; type: ADME
# [5] = Tmax in Wistar rat; type: ADME, organism-based; settings: in vivo
# [6] = biological target: Voltage-gated inwardly rectifying potassium channel KCNH2 (Homo sapiens, UniProt Q12809)
# [7] = biological target: Cytochrome P450 2D6 (Homo sapiens, UniProt P10635); experiment: Inhibition of CYP 2D6; type: ADME
# [8] = biological target: Cytochrome P450 2C19 (Homo sapiens, UniProt P33261); experiment: Inhibition of CYP 2C19; type: ADME
# [9] = Half life in Wistar rat plasma at 1 mg/kg, iv; type: ADME, organism-based; parameters: dose 1 mg/kg, route intravenous
# [10] = Bioavailability in Wistar rat at 10 mg/kg, ip; type: ADME, organism-based; settings: in vivo
# [11] = Oral bioavailability in Wistar rat at 10 mg/kg; type: ADME, organism-based; settings: in vivo
# [12] = biological target: 5-hydroxytryptamine receptor 2B (Homo sapiens, UniProt P41595); experiment: Inhibition of human 5-HT2B receptor
# [13] = Half life in Wistar rat plasma at 10 mg/kg, po; type: ADME, organism-based; parameters: dose 10 mg/kg, route oral
# [14] = Plasma protein binding in human at 5 uM by LC/MS/MS analysis; type: ADME, cell-free; settings: read-out: PPB (converted)
# [15] = Fraction unbound in rat brain homogenate at 1 uM after 6 hrs by […]; type: ADME, tissue-based
# [16] = Ratio of drug level in brain to plasma in Wistar rat at 10 mg/kg, po; type: ADME, organism-based; parameters: dose 10 mg/kg, route oral; settings: brain and plasma
# [17] = system: LLC-PK1; settings: pig
# Description: Permeability across pig LLC-PK1 cell line overexpressing human MDR1 at 3 hrs by LC/MS analysis
# [18] = biological target: Cytochrome P450 3A4 (Homo sapiens, UniProt P08684); experiment: Inhibition of CYP 3A4; type: ADME
# [19] = biological target: Cytochrome P450 2C9 (Homo sapiens, UniProt P11712); experiment: Inhibition of CYP 2C9; type: ADME
# [20] = system: Cavia porcellus; experiment: Cardiotoxicity in telemetered conscious freely moving Dunkin-Hartley guinea pig assessed as prolongation of electrocardiographic QTc interval at 100 mg/kg, sc administered for 120 mins; type: toxicity, organism-based; parameters: dose 100 mg/kg, route subcutaneous; settings: in vivo, 2 h
# [21] = system: Cavia porcellus; experiment: Cardiotoxicity in telemetered conscious freely moving Dunkin-Hartley guinea pig assessed as prolongation of electrocardiographic QTc interval at 10 mg/kg, po measured up to 120 mins; type: toxicity, organism-based; parameters: dose 10 mg/kg, route oral; settings: in vivo, 2 h
# [22] = system: Cavia porcellus; experiment: Cardiotoxicity in telemetered conscious freely moving Dunkin-Hartley guinea pig assessed as prolongation of electrocardiographic QTc interval at 50 mg/kg, po measured up to 120 mins; type: toxicity, organism-based; parameters: dose 50 mg/kg, route oral; settings: in vivo, 2 h
# [23] = Inhibition of human sigma receptor
# [24] = biological target: Muscarinic acetylcholine receptor M3 (Homo sapiens, UniProt P20309); experiment: Inhibition of human muscarinic M3 receptor
# [25] = Plasma protein binding in rat at 5 uM by LC/MS/MS analysis; type: ADME, cell-free; settings: read-out: PPB (converted)
# [26] = biological target: Muscarinic acetylcholine receptor M1 (Homo sapiens, UniProt P11229); experiment: Inhibition of human muscarinic M1 receptor
# [27] = biological target: 5-hydroxytryptamine receptor 1D (Homo sapiens, UniProt P28221); experiment: Inhibition of human 5-HT1D receptor
# [28] = biological target: Muscarinic acetylcholine receptor M4 (Homo sapiens, UniProt P08173); experiment: Inhibition of human muscarinic M4 receptor
# [29] = biological target: Muscarinic acetylcholine receptor M5 (Homo sapiens, UniProt P08912); experiment: Inhibition of human muscarinic M5 receptor
# [30] = biological target: T1, 5-hydroxytryptamine receptor 1A (Homo sapiens, UniProt P08908); experiment: Inhibition of human 5-HT1A receptor
# T1 sequence (P08908 whole entry): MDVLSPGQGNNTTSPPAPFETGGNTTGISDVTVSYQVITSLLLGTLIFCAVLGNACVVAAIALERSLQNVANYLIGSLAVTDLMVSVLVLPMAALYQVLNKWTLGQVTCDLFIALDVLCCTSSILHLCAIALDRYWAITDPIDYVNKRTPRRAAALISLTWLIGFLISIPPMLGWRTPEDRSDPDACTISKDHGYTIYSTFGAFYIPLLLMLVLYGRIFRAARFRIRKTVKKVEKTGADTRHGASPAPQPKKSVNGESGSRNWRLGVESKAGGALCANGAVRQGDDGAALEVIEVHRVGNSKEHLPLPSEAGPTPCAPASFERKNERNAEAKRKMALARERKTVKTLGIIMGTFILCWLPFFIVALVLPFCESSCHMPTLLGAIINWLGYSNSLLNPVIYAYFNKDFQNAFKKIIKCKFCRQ
# [31] = biological target: 5-hydroxytryptamine receptor 3A (Homo sapiens, UniProt P46098); experiment: Inhibition of human 5-HT3 receptor
# [32] = biological target: Muscarinic acetylcholine receptor M2 (Homo sapiens, UniProt P08172); experiment: Inhibition of human muscarinic M2 receptor
# [33] = biological target: 5-hydroxytryptamine receptor 7 (Homo sapiens, UniProt P34969); experiment: Inhibition of human 5-HT7 receptor
# [34] = biological target: 5-hydroxytryptamine receptor 2C (Homo sapiens, UniProt P28335); experiment: Inhibition of human 5-HT2C receptor
# [35] = biological target: D(2) dopamine receptor (Homo sapiens, UniProt P14416); experiment: Inhibition of human dopamine D2 receptor
# [36] = biological target: 5-hydroxytryptamine receptor 2A (Homo sapiens, UniProt P28223); experiment: Inhibition of human 5-HT2A receptor
# Chain of 5-hydroxytryptamine receptor 2A (P28223 whole entry): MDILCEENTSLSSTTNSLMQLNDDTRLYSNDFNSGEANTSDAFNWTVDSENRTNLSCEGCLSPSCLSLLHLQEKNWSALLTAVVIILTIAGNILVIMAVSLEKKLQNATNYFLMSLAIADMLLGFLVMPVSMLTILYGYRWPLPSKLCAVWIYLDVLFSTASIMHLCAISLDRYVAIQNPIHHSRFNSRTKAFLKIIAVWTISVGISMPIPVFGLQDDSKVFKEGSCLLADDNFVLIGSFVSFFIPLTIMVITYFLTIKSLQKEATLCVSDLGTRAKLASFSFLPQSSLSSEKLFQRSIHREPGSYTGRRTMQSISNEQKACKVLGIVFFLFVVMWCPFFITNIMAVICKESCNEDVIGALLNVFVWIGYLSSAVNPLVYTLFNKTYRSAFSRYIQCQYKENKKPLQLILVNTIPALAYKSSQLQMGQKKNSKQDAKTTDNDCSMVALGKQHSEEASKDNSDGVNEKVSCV
# Chain of Voltage-gated inwardly rectifying potassium channel KCNH2 (Q12809 whole entry): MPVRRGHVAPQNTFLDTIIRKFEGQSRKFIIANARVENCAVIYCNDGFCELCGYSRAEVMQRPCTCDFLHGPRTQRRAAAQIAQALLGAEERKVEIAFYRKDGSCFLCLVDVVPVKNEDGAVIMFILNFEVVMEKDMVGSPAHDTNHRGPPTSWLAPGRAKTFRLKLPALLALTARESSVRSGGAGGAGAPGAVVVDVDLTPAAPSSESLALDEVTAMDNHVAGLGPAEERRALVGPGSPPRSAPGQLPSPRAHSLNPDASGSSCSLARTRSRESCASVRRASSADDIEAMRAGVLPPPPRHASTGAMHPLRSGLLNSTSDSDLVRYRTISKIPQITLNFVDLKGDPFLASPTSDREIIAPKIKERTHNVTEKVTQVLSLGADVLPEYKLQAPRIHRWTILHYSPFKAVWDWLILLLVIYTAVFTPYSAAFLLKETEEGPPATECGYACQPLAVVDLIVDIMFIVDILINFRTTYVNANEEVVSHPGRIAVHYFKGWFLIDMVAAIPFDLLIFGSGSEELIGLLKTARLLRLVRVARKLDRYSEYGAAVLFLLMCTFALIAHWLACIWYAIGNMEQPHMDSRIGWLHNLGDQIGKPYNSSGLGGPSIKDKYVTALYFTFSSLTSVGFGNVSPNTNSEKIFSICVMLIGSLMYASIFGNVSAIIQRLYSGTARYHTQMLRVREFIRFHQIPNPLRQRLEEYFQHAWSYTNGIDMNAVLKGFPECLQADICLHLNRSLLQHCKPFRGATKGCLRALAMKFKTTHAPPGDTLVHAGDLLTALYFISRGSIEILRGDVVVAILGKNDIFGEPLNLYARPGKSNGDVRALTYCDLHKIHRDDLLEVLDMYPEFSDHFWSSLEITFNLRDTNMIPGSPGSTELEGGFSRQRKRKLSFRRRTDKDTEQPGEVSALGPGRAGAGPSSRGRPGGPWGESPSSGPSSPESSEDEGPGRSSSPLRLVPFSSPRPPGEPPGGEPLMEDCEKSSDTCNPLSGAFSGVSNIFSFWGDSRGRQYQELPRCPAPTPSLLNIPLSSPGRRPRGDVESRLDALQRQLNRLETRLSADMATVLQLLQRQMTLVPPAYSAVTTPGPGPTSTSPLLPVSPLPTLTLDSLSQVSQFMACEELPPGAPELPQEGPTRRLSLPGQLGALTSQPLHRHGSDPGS
# Chain of 5-hydroxytryptamine receptor 1D (P28221 whole entry): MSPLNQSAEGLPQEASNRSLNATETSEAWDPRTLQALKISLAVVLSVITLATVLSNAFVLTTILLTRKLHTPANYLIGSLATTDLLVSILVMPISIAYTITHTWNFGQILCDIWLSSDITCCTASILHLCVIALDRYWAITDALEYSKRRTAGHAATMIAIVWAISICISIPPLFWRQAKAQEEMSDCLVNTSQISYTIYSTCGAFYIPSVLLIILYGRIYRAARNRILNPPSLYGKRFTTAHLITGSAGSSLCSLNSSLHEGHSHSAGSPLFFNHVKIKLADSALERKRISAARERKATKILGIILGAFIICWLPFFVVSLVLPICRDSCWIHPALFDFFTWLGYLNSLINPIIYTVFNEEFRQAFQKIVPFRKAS
# Chain of 5-hydroxytryptamine receptor 6 (P50406 whole entry): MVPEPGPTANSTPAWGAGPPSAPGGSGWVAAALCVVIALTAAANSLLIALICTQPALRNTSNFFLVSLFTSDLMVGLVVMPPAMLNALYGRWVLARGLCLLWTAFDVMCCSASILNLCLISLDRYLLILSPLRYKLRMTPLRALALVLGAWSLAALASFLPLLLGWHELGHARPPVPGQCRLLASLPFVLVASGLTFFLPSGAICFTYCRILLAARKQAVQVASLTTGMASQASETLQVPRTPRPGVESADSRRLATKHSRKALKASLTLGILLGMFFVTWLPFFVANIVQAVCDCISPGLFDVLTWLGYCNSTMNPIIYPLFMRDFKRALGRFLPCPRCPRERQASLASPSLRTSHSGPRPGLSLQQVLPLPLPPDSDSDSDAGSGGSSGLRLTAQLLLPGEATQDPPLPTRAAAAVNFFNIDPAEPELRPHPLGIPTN
# Chain of D(2) dopamine receptor (P14416 whole entry): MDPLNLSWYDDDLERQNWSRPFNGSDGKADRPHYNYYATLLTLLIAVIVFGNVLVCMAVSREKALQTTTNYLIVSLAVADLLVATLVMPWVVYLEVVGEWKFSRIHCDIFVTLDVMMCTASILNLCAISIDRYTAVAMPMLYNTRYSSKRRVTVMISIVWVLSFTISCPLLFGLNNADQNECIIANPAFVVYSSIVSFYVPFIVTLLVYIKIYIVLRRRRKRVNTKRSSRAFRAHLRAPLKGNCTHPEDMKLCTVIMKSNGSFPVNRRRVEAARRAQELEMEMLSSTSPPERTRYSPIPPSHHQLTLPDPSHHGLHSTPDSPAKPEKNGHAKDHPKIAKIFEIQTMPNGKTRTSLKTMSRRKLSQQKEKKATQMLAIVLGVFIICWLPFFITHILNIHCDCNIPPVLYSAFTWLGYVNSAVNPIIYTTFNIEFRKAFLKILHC
# Chain of 5-hydroxytryptamine receptor 7 (P34969 whole entry): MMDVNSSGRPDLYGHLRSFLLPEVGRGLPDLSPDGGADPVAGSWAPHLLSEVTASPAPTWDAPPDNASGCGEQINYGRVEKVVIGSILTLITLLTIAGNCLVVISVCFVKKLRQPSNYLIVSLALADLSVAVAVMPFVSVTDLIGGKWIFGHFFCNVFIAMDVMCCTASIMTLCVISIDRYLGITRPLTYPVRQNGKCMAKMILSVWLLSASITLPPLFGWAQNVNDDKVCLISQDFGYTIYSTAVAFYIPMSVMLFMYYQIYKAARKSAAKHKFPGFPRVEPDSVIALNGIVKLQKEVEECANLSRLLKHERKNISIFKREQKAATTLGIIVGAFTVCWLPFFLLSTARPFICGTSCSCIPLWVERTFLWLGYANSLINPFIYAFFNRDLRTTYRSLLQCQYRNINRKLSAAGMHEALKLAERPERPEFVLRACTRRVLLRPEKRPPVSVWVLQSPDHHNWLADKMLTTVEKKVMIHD
# Chain of 5-hydroxytryptamine receptor 2C (P28335 whole entry): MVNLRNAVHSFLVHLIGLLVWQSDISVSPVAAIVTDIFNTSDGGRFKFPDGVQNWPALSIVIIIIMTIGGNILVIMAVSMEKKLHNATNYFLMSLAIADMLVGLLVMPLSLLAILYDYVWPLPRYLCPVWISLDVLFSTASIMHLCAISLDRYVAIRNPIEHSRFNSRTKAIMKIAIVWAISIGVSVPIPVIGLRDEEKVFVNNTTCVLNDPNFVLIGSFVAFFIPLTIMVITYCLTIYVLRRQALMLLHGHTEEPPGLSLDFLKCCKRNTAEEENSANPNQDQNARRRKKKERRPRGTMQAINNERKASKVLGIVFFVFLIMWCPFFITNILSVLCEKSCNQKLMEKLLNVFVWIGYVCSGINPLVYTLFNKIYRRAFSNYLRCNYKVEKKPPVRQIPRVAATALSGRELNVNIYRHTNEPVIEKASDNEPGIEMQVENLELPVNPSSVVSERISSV
# Chain of Muscarinic acetylcholine receptor M2 (P08172 whole entry): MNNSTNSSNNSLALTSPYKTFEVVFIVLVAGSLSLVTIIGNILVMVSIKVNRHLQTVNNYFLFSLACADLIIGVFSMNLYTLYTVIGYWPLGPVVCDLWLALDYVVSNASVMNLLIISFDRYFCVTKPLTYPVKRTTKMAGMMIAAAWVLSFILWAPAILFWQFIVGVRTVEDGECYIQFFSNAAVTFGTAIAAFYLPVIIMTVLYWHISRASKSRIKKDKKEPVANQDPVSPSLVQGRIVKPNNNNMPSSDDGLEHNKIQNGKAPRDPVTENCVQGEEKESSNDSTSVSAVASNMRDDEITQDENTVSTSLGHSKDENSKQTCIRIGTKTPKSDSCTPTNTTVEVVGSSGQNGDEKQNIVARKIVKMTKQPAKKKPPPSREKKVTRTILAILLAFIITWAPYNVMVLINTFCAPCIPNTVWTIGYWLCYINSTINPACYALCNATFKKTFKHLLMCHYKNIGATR
# Chain of Muscarinic acetylcholine receptor M4 (P08173 whole entry): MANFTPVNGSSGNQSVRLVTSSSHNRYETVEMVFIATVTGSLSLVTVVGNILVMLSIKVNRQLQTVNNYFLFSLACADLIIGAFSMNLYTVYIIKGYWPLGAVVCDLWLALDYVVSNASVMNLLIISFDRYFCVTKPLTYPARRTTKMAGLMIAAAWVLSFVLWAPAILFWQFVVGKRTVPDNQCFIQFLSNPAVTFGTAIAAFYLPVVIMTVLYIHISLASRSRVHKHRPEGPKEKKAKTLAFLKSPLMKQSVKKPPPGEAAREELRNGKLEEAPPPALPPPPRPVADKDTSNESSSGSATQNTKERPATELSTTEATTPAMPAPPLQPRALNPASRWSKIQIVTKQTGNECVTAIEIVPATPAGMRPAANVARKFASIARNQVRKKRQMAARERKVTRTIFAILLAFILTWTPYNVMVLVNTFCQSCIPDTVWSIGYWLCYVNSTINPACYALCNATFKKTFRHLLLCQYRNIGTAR
SMILES,hepatocyte CLint at 1 ug/mL [1],hepatocyte CLint at 1 ug/mL [2],Ki [3],further results
CCN/C(=N\S(=O)(=O)c1ccc(Cl)c(Cl)c1)N1CC(CC)C=N1 (stereo unspecified),92 µL/min/1e6 cells,198 µL/min/1e6 cells,7.9 nM,
CCN/C(=N\S(=O)(=O)c1cccc(C)c1)N1CC(CC)C=N1 (stereo unspecified),51 µL/min/1e6 cells,116 µL/min/1e6 cells,27.4 nM,
CCN/C(=N\S(=O)(=O)c1cccc(Cl)c1)N1CC(CC)(CC)C=N1,,,49.9 nM,
CCN/C(=N\S(=O)(=O)c1cc(Cl)ccc1Cl)N1CC(CC)C=N1 (stereo unspecified),,116 µL/min/1e6 cells,119 nM,
CCN/C(=N\S(=O)(=O)c1cccc(Cl)c1)N1CC2(C=N1)CCCCC2,,,5.2 nM,
CCN/C(=N\S(=O)(=O)c1cccc(Cl)c1)N1CCC=N1,,,33.9 nM,
CCN/C(=N\S(=O)(=O)c1c(Cl)nc2sccn12)N1CC(CC)C=N1 (stereo unspecified),20 µL/min/1e6 cells,116 µL/min/1e6 cells,7.9 nM,
CCN/C(=N\S(=O)(=O)c1ccccc1Cl)N1CC(CC)C=N1 (stereo unspecified),39 µL/min/1e6 cells,99 µL/min/1e6 cells,27.8 nM,
CCN=C(NS(=O)(=O)c1cccc(Cl)c1)N1N=CC[C@@H]1c1ccccc1,,107 µL/min/1e6 cells,,
CCN/C(=N\S(=O)(=O)c1c(C)nn(C)c1Cl)N1CC(CC)C=N1 (stereo unspecified),11 µL/min/1e6 cells,53 µL/min/1e6 cells,,
CCN/C(=N\S(=O)(=O)c1ccc2ccccc2c1)N1CC(CC)C=N1 (stereo unspecified),41 µL/min/1e6 cells,139 µL/min/1e6 cells,17.2 nM,
CCN/C(=N\S(=O)(=O)c1cccc(OC)c1)N1CC(CC)C=N1 (stereo unspecified),46 µL/min/1e6 cells,92 µL/min/1e6 cells,26.6 nM,
CCN/C(=N\S(=O)(=O)c1cccc(C(F)(F)F)c1)N1CC(CC)C=N1 (stereo unspecified),27 µL/min/1e6 cells,116 µL/min/1e6 cells,17.9 nM,
CCNC(=N[S+]([O-])c1sc2ccc(Cl)cc2c1C)N1CC(CC)C=N1 (stereo unspecified),,,8.5 nM,
CCN/C(=N\S(=O)(=O)c1ccc(S(C)(=O)=O)cc1)N1CC(CC)C=N1 (stereo unspecified),4 µL/min/1e6 cells,20 µL/min/1e6 cells,,
CCN/C(=N\S(=O)(=O)c1cccc(Cl)c1)N1N=CCC1c1ccco1 (racemic),92 µL/min/1e6 cells,198 µL/min/1e6 cells,8.2 nM,
CCN/C(=N\S(=O)(=O)c1cccc(Cl)c1F)N1CC(CC)C=N1 (stereo unspecified),36 µL/min/1e6 cells,116 µL/min/1e6 cells,2.7 nM,
CCC1C=NN(/C(=N/S(=O)(=O)c2ccccc2Cl)NCc2ccccc2)C1 (stereo unspecified),,,92 nM,
CCC1C=NN(/C(N)=N/S(=O)(=O)c2cccc(Cl)c2)C1 (stereo unspecified),,,24.2 nM,

SMILES,hepatocyte CLint at 1 ug/mL [1],hepatocyte CLint at 1 ug/mL [2],Ki [3],further results
CCN/C(=N\S(=O)(=O)c1cccc(Cl)c1)N1N=CCC1c1ccncc1 (racemic),50 µL/min/1e6 cells,87 µL/min/1e6 cells,322 nM,
CCN/C(=N\S(=O)(=O)c1cccc(Cl)c1)N1CC(C)(C)C=N1,,,24.1 nM,"IC50 [4]: > 10000 nM; Tmax [5]: 0.5 h; IC50 [6]: > 10000 nM; IC50 [7]: > 10000 nM; IC50 [8]: > 10000 nM; half-life [9]: 2 h; bioavailability [10]: 45%; bioavailability [11]: 7%; Ki [12]: 7940 nM; half-life [13]: 2 h; fraction unbound at 5 µM [14]: 0.37; fraction unbound at 6 h, 1 µM [15]: 0.01; Kp [16]: 1; permeability ([17]; llc-pk1, 3 h): 41%; IC50 [18]: > 10000 nM; IC50 [19]: > 10000 nM; Activity [20]: Non-toxic"
CCN/C(=N\S(=O)(=O)c1cccc(Cl)c1)N1CC2(C=N1)CCNCC2,3 µL/min/1e6 cells,25 µL/min/1e6 cells,,"Activity [21]: Non-toxic; Activity [22]: Toxic; pKi [23]: 5; Ki [24]: 10000 nM; IC50 [6]: 7940 nM; fraction unbound at 5 µM [25]: 0.41; Ki [26]: 10000 nM; Ki ([27]; read-out: pKi (converted)): 10000 nM; Ki [28]: 10000 nM; Ki [29]: 10000 nM; fraction unbound at 5 µM [14]: 0.34; Ki ([30]; read-out: pKi (converted)): 10000 nM; permeability ([17]; llc-pk1, 3 h): 14.7%; Ki [31]: 10000 nM; Ki [32]: 10000 nM"
CCC1C=NN(/C(=N/S(=O)(=O)c2ccccc2Cl)NC(C)C)C1 (stereo unspecified),,,> 1000 nM,
CCN/C(=N\S(=O)(=O)c1cccc(Cl)c1)N1CC(C)C=N1 (stereo unspecified),,,8 nM,
CCN/C(=N\S(=O)(=O)c1cccc(Cl)c1)N1CC2(C=N1)CCCC2,,,6.4 nM,
CCC1C=NN(/C(=N/S(=O)(=O)c2cccc(Cl)c2)NC)C1 (stereo unspecified),,,17.8 nM,
CCN=C(NS(=O)(=O)c1cccc(Cl)c1)N1N=CCC1c1ccc(F)cc1 (racemic),107 µL/min/1e6 cells,126 µL/min/1e6 cells,138 nM,
CCN=C(NS(=O)(=O)c1cccc(Cl)c1)N1N=CC[C@H]1c1ccccc1,107 µL/min/1e6 cells,116 µL/min/1e6 cells,,
CCN/C(=N\S(=O)(=O)c1cccc(Cl)c1)N1CC(CC)C=N1 (racemic),,,,Ki [33]: > 1000 nM; Ki [34]: > 1000 nM; Ki [35]: > 1000 nM; Ki ([27]; read-out: Ki): > 1000 nM; Ki [36]: > 1000 nM; Ki ([30]; read-out: Ki): > 1000 nM
CCN/C(=N\S(=O)(=O)c1cccc(Cl)c1)N1CCC(C)=N1,,,231 nM,
CCN/C(=N\S(=O)(=O)c1cccc(Cl)c1)N1N=CCC1c1ccccc1 (racemic),73 µL/min/1e6 cells,116 µL/min/1e6 cells,,"Ki [33]: > 1000 nM; IC50 [6]: > 10000 nM; Ki [34]: > 1000 nM; Ki [35]: > 1000 nM; Ki ([27]; read-out: Ki): > 1000 nM; Ki [36]: > 1000 nM; Ki ([30]; read-out: Ki): > 1000 nM; permeability ([17]; LLC-PK1, 3 h): 38.5%"
CCC1C=NN(/C(=N/S(=O)(=O)c2cccc(Cl)c2)N(C)C)C1 (stereo unspecified),,,> 1000 nM,
CCCN/C(=N\S(=O)(=O)c1cccc(Cl)c1)N1CC(CC)C=N1 (stereo unspecified),,,14.6 nM,
CCC1C=NN(/C(=N/S(=O)(=O)c2ccccc2Cl)Nc2ccccc2)C1 (stereo unspecified),,,> 1000 nM,
CCN/C(=N\S(=O)(=O)c1c(Cl)cccc1Cl)N1CC(CC)C=N1 (stereo unspecified),,126 µL/min/1e6 cells,197 nM,
CCN=C(NS(=O)(=O)c1cccc(Cl)c1)N1CC(CF)(CF)C=N1,,,92 nM,
CCN/C(=N\S(=O)(=O)c1ccccc1)N1CC(CC)C=N1 (stereo unspecified),,,33.9 nM,
